Measured values from patent publication US11103509B2 (University of Kentucky Research Foundation, priority 2018, dated 2021).
Entries after “also recorded” stand apart in the source; their conditions may differ. Where two headings read alike, the source gives them in different places.

Legend:
[1] = test system: pain in cancer patients; test: clinical data mining: patients complaining about pain in lapatinib clinical trials; type: in vivo, human; parameters: Pain decreased compared to control group (%): Arthralgia / Pain decreased compared to control group (%): Musculoskeletal Pain / Pain decreased compared to control group (%): Headache / Pain decreased compared to control group (%): Oral pain / Pain decreased compared to control group (%): Pain-overall / Pain decreased compared to control group (%): Myalgia: concentration or dose not given beside the values
Protocol: The “other adverse events” part of the clinical report was analyzed.
In particular, all of the data from clinical trials NCT00424255, NCT00390455, NCT00371566, and NCT00374322 was collected together as a larger dataset.
(§1) All p values on the differences between groups were calculated using χ^2 tests on GraphPad Prism 6.0. Confidence interval was set at 95%. […] Barnard's tests or Fisher's tests were not chosen due to the large sample size and Yate's correction on χ^2 tests was not adopted due to the same reason.

[2] = molecular target: T1, human mPGES-1 (Homo sapiens, UniProt O14684); test: in vitro inhibitory activity against human mPGES-1 (PGE2 enzyme immunoassay); type: biochemical
T1 construct: made in house
T1 sequence (O14684 1-152): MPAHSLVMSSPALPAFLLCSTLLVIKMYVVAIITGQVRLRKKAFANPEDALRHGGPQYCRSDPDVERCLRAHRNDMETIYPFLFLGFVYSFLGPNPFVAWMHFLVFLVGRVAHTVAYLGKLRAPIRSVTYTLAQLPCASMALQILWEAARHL
Protocol: The above computational predictions were followed by in vitro activity assays for their actual inhibitory activity against human mPGES-1 using an ELISA assay previously-described.^16-17, 19 Specifically, a total of 18 FDA-approved drugs were assayed for their inhibitory activity against human mPGES-1.
The protocol for the protein preparation and in vitro activity assays were the same as described previously.^69-72 The enzyme activity assays were performed on ice in 1.5 ml microfuge tubes by using the expressed human mPGES-1. The reaction mixture contained: 0.2 M Na2HPO4/NaH2PO4, pH 7.2, 10 μL; 0.1 M GSH, 2.5 μL; diluted microsomal enzyme (80 μg/mL), 1 μL; PGH2 (0.31 mM in DMF), 5 μL; 1 μL inhibitor; and H2O in a final reaction volume of 100 μL. PGH2 was stored in dry ice and used to initiate the reaction. Compounds were incubated with the enzyme for 15 min at room temperature before the addition of cold PGH2 (1 μM final) to initiate the enzyme reaction. After 30 s, 10 μL of SnCl2 (40 mg/mL) in ethanol was added to stop the reaction. The non-enzymatic conversion of PGH2 to PGE2 was performed in the same buffer devoid of enzyme. The reaction mixture was placed on ice until PGE2 production was determined by the PGE2 enzyme immunoassay as described earlier. IC50 values of the inhibitors were calculated by using the GraphPad Prism 6.0.

[3] = test system: pain in cancer patients; test: clinical data mining: pain complaints in phase III clinical trial NCT00490139; type: in vivo, human; settings: compared to patients given only trastuzumab (FIG. 5)
Protocol: as §1

[4] = test system: pain symptoms in inflammatory breast cancer patients; settings: lapatinib monotherapy, n=17, not statistically significant (p>0.05); cited from earlier work
[5] = human, read-out: Cmax (μM) in plasma, cited from earlier work
[6] = test system: pain in cancer patients; settings: cited from earlier work
[7] = molecular target: T1, human mPGES-1; test: in vitro inhibitory activity against human mPGES-1 (PGE2 enzyme immunoassay); type: biochemical; settings: lapatinib constant 1 μM, GSH at different concentrations (FIG. 3D)
[8] = test system: pain in cancer patients; settings: NCT00490139 Group III: oral lapatinib 1500 mg daily, 52 weeks; cited from earlier work
[9] = all individual pains added, four trials
[10] = combined NCT00374322, NCT00390455
[11] = combined NCT00374322, NCT00390455, NCT00424255, NCT00371566
[12] = combined NCT00390455, NCT00424255
[13] = combined NCT00424255, NCT00371566
[14] = combined nine trials (footnote e)
[15] = NCT00371566, with drug total 69
[16] = NCT00374322, with drug total 1573
[17] = NCT00390455, with drug total 141
[18] = NCT00424255, with drug total 349

## CS(=O)(=O)CCNCc1ccc(-c2ccc3ncnc(Nc4ccc(OCc5cccc(F)c5)c(Cl)c4)c3c2)o1 [lapatinib]
[1]; [9]
  # of patients complaining pain/# of patients given lapatinib, Counts: Pain-overall: 304/4754
  patients complaining pain, Percentage (%): Pain-overall: 6.39%
[1]; all individual pains added, four trials, control drugs or placebo
  Pain decreased compared to control group (%): Pain-overall: 28.00%
[1]; [10]
  # of patients complaining pain/# of patients given lapatinib, Counts: Arthralgia: 72/1714
  patients complaining pain, Percentage (%): Arthralgia: 4.20%
[1]; [11]
  # of patients complaining pain/# of patients given lapatinib, Counts: Headache: 182/2132
  patients complaining pain, Percentage(%): Headache: 8.54%
[1]; combined NCT00374322, NCT00390455, NCT00424255, NCT00371566, control drugs or placebo
  Pain decreased compared to control group (%): Headache: 23.02%
[1]; combined NCT00374322, NCT00390455, control drugs or placebo
  Pain decreased compared to control group (%): Arthralgia: 39.60%
[1]; [12]
  # of patients complaining pain/# of patients given lapatinib, Counts: Musculoskeletal Pain: 15/490
  patients complaining pain, Percentage (%): Musculoskeletal Pain: 3.06%
[1]; combined NCT00390455, NCT00424255, control drugs or placebo
  Pain decreased compared to control group (%): Musculoskeletal Pain: 39.67%
[1]; [13]
  # of patients complaining pain/# of patients given lapatinib, Counts: Oral pain: 35/418
  patients complaining pain, Percentage (%): Oral pain: 8.37%
[1]; combined NCT00424255, NCT00371566, control drugs or placebo
  Pain decreased compared to control group (%): Oral pain: 18.03%
[1]; [14]
  # of patients complaining pain/# of patients given lapatinib, Counts: Myalgia: 321/3314
  patients complaining pain, Percentage (%): Myalgia: 9.69%
[1]; combined nine trials (footnote e), control drugs or placebo
  Pain decreased compared to control group (%): Myalgia: 14.02%
[1]; pain-overall category, combined trials, p<0.05
  overall pain relief (in words): significantly relieve pain in cancer patients
[2]
  IC50: 800 nM
[3]
  pain relief in NCT00490139 (in words): significantly relive all types of pain (p<0.05), except for the back pain
[4]
  relief from symptoms including pain (in words): provide relief from symptoms, including pain, in the short term
[5]; 1250 mg orally once daily, trial NCT00477464
  Cmax: 6.06 µM
[5]; 1500 mg (6 pills at 250 mg) once oral daily, trials NCT00486954 and NCT01138046, average Cmax
  Cmax: 8.6 µM
[5]; dose 10 mg, GW572016 ditosylate monohydrate oral suspension (Bence et al.)
  Cmax: 0.019 µM
[5]; dose 25 mg, GW572016 ditosylate monohydrate oral suspension (Bence et al.)
  Cmax: 0.04 µM
[5]; dose 50 mg, GW572016 ditosylate monohydrate oral suspension (Bence et al.)
  Cmax: 0.124 µM
[5]; dose 100 mg, GW572016 ditosylate monohydrate oral suspension (Bence et al.)
  Cmax: 0.213 µM
[5]; dose 175 mg, GW572016 ditosylate monohydrate oral suspension (Bence et al.)
  Cmax: 0.38 µM
[5]; dose 250 mg, GW572016 ditosylate monohydrate oral suspension (Bence et al.)
  Cmax: 0.546 µM
[5]; dose 500 mg, tablets, daily oral, trial EGF10004
  Cmax: 1.76 µM
[5]; dose 650 mg, tablets, daily oral, trial EGF10004
  Cmax: 2.24 µM
[5]; dose 1000 mg, tablets, daily oral, trial EGF10004
  Cmax: 3.18 µM
[6]; [15]
  Headache, With drug pains: 3
  Oral pain, With drug pains: 10
[6]; NCT00374322, vs placebo 113/1574
  patients reporting arthralgia / patients in lapatinib group: 69/1573
[6]; NCT00374322, vs placebo 185/1574
  patients reporting headache / patients in lapatinib group: 140/1573
[6]; [16]
  Arthralgia, With drug pains: 69
  Headache, With drug pains: 140
[6]; [17]
  Arthralgia, With drug pains: 3
  Back Pain, With drug pains: 5
  Bone Pain, With drug pains: 3
  Headache, With drug pains: 19
  Musculoskeletal Pain, With drug pains: 0
  Pain In Extremity, With drug pains: 1
  Pain-chest/thorax, With drug pains: 1
[6]; [18]
  Headache, With drug pains: 20
  Musculoskeletal Pain, With drug pains: 15
  Oral pain, With drug pains: 25
[7]
  competition with co-factor GSH: competes with co-factor GSH; also recorded: GSH-competitive inhibitor
[8]
  Arthralgia, Patient counts: 290/2057
  Arthralgia, patient percentage: (14.10%)
  Back Pain, patient percentage: (5.79%)
  Bone Pain, Patient counts: 91/2057
  Bone Pain, patient percentage: (4.42%)
  Headache, Patient counts: 161/2057
  Headache, patient percentage: (7.83%)
  Musculoskeletal pain, Patient counts: 70/2057
  Musculoskeletal pain, patient percentage: (3.40%)
  Pain in Extremity, Patient counts: 99/2057
  Pain in Extremity, patient percentage: (4.81%)
